Experimental data from US9078440B2, “6-(2-aminophenyl)picolinates and their use as herbicides” (BAYER INTELLECTUAL PROPERTY GMBH, priority 2010, dated 2015).

What was measured:
Format in all cases: in vivo
[1] = system: Polygonum (Fallopia) convolvulus; assay: Pre-emergence herbicidal effect, greenhouse pot test; conditions: 1.28 kg of active substance per hectare, assessed visually after 3 weeks
Text: (§1) Pre-emergence Herbicidal Effect and Crop Plant Compatibility
(§2) Seeds of monocotyledonous and dicotyledonous weed plants and crop plants are placed in wood-fibre pots in sandy loam and covered with soil. The inventive compounds, formulated in the form of wettable powders (WP) or as emulsion concentrates (EC), are then applied to the surface of the covering soil as an aqueous suspension or emulsion at a water application rate of 600 to 800 I/ha (converted) with addition of 0.2% wetting agent. After the treatment, the pots are placed in a greenhouse and kept under good growth conditions for the test plants. The damage to the test plants is assessed visually after a test period of 3 weeks by comparison with untreated controls (herbicidal activity in percent (%): 100% action=the plants have died, 0% action=like control plants).

[2] = system: Viola tricolor; assay: as above; conditions: 1.28 kg of active substance per hectare, assessed visually after 3 weeks
Text: as §1, §2

[3] = system: Amaranthus retroflexus; assay: as above; conditions: 1.28 kg of active substance per hectare, assessed visually after 3 weeks
Text: as §1, §2

[4] = system: Pharbitis (Ipomoea) purpurea; assay: Post-emergence herbicidal effect, greenhouse pot test; conditions: 1.28 kg or less active substance per hectare, scored visually after about 3 weeks
Protocol: (§3) Post-emergence herbicidal effect and crop plant compatibility
(§4) Seeds of monocotyledonous and dicotyledonous weed and crop plants are placed in sandy loam in wood-fibre pots, covered with soil and cultivated in a greenhouse under good growth conditions. 2 to 3 weeks after sowing, the test plants are treated at the one-leaf stage. The inventive compounds, formulated in the form of wettable powders (WP) or as emulsion concentrates (EC), are then sprayed onto the green parts of the plants as an aqueous suspension or emulsion at a water application rate of 600 to 800 I/ha (converted) with addition of 0.2% by weight of wetting agent. After the test plants have been left to stand in the greenhouse under optimal growth conditions for about 3 weeks, the action of the formulations is scored visually in comparison to untreated controls (herbicidal action in percent (%): 100% action=the plants have died, 0% action=like control plants).

[5] = system: Matricaria inodora; assay: as above; conditions: 1.28 kg or less active substance per hectare, scored visually after about 3 weeks
Protocol: as §3, §4

[6] = system: Stellaria media; assay: as above; conditions: 1.28 kg or less active substance per hectare, scored visually after about 3 weeks
Protocol: as §3, §4

[7] = system: Polygonum (Fallopia) convolvulus; assay: as above; conditions: 1.28 kg or less active substance per hectare, scored visually after about 3 weeks
Protocol: as §3, §4

[8] = system: Viola tricolor; assay: as above; conditions: 1.28 kg or less active substance per hectare, scored visually after about 3 weeks
Protocol: as §3, §4

[9] = system: Amaranthus retroflexus; assay: as above; conditions: 1.28 kg or less active substance per hectare, scored visually after about 3 weeks
Protocol: as §3, §4

[10] = system: Veronica persica; assay: as above; conditions: 1.28 kg or less active substance per hectare, scored visually after about 3 weeks
Protocol: as §3, §4

Measured: herbicidal action

COC(=O)c1nc(-c2ccc(Cl)cc2N)cc(N)c1Cl [compound 58, methyl 4-amino-6-(2-amino-4-chlorophenyl)-3-chloropyridine-2-carboxylate]
at least 90%: all assays above
